Source: patent publication US20190159450A1, “PYRIDINE-BASED COMPOUND INCLUDING ISOXAZOLINE RING AND USE THEREOF AS HERBICIDE” (MOGHU RESEARCH CENTER LTD., priority 2016, published 2019)

Columns and labels:
Assay type in all cases: in vivo
[1] = test system: maize; experiment: Herbicidal activity test, pre-weeds emergence treatment (crop damage); conditions: assessed 2 to 3 weeks after spraying, scale 0-10 (0: no effect, 10: complete death)
Procedure: (§1) A rectangular plastic pot with a surface area of 300 cm^2 was filled with sandy loam soil and mixed soil at a ratio of 1:1, and four kinds of weeds including Quamoclit pennata, Abutilon theophrasti Medicus, and Aeschynomene indica, Xanthium strumarium were sown therein. In another pot made in the same way, three kinds of crop seeds including maize, wheat, and rice were sown. The pots were watered and one day later, a medicament was sprayed thereon. The spraying was performed by using a track sprayer (R&D Sprayer, USA) equipped with Teejet 8002EVS (Spraying Systems Co., USA) nozzle, and the spray amount was controlled to be 1000 L/ha. A spray solution was prepared by dissolving the compound of each example or a control material in acetone, and then, adding the same amount of 0.1% (v/v) tween 20 aqueous solution thereto. The spray amount was 200 g/ha. The pots were placed in a greenhouse in which the temperature was maintained at 25° C. to 30° C. during the day and 15° C. to 25° C. during the night, and was regularly watered. After 2 to 3 weeks from the spraying of the compounds or the control material, the efficacy and the damages on each weed and each crop were assessed according to the scale of 0-10 (0: no effect, 10: complete death) scale and the results are shown in Table 3 below.
(§2) Pots for crops and weeds were prepared in the same manner as the test method illustrated in Table 3, and three kinds of weeds selected from Quamoclit pennata, Abutilon theophrasti Medicus, and Aeschynomene indica, Xanthium strumarium were used.

[2] = test system: rice; experiment: as above; conditions: assessed 2 to 3 weeks after spraying, scale 0-10 (0: no effect, 10: complete death)
Procedure: as §1, §2

[3] = test system: wheat; experiment: as above; conditions: assessed 2 to 3 weeks after spraying, scale 0-10 (0: no effect, 10: complete death)
Procedure: as §1, §2

[4] = test system: Xanthium strumarium; experiment: Herbicidal activity test, post-weeds emergence treatment; conditions: assessed after 2 to 3 weeks, 0: no effect, 10: complete death
Procedure: as §1
(§3) Pots for crops and weeds were prepared in the same manner as in Experimental Example 1, and then, when the crops and the weeds were raised up to 2 weeks roughly on a third-leaf stage, the compounds and the control material were sprayed thereon in the same manner as described above. The spray amount was 200 g/ha. After 2 to 3 weeks from the spraying of the test substance or the control substance, the efficacy and the damages on each weed and each crop were assessed according to the scale of 0-10 (0: no effect, 10: complete death) scale.
as §2, with “5,” for “3,”, “four” for “three”, “used. The spray amount was 200 g/ha for crops and 50 g/ha for weeds.” for “used.”

[5] = test system: Quamoclit pennata; experiment: as above; conditions: assessed after 2 to 3 weeks, 0: no effect, 10: complete death
Procedure: as §1, §3
as §2, with “5,” for “3,”, “four” for “three”, “used. The spray amount was 200 g/ha for crops and 50 g/ha for weeds.” for “used.”

[6] = test system: Aeschynomene indica; experiment: as above; conditions: assessed after 2 to 3 weeks, 0: no effect, 10: complete death
Procedure: as §1, §3
as §2, with “5,” for “3,”, “four” for “three”, “used. The spray amount was 200 g/ha for crops and 50 g/ha for weeds.” for “used.”

[7] = test system: Abutilon theophrasti Medicus; experiment: as above; conditions: assessed after 2 to 3 weeks, 0: no effect, 10: complete death
Procedure: as §1, §3
as §2, with “5,” for “3,”, “four” for “three”, “used. The spray amount was 200 g/ha for crops and 50 g/ha for weeds.” for “used.”

[8] = test system: Xanthium strumarium; experiment: Herbicidal activity test, pre-weeds emergence treatment; conditions: assessed 2 to 3 weeks after spraying, scale 0-10 (0: no effect, 10: complete death)
Procedure: as §1, §2

[9] = test system: Quamoclit pennata; experiment: as above; conditions: assessed 2 to 3 weeks after spraying, scale 0-10 (0: no effect, 10: complete death)
Procedure: as §1, §2

[10] = test system: Aeschynomene indica; experiment: as above; conditions: assessed 2 to 3 weeks after spraying, scale 0-10 (0: no effect, 10: complete death)
Procedure: as §1, §2

[11] = test system: Abutilon theophrasti Medicus; experiment: as above; conditions: assessed 2 to 3 weeks after spraying, scale 0-10 (0: no effect, 10: complete death)
Procedure: as §1, §2

[12] = test system: maize; experiment: Herbicidal activity test, post-weeds emergence treatment (crop damage); conditions: assessed after 2 to 3 weeks, 0: no effect, 10: complete death
Procedure: as §1, §3
as §2, with “5,” for “3,”, “four” for “three”, “used. The spray amount was 200 g/ha for crops and 50 g/ha for weeds.” for “used.”

[13] = test system: rice; experiment: as above; conditions: assessed after 2 to 3 weeks, 0: no effect, 10: complete death
Procedure: as §1, §3
as §2, with “5,” for “3,”, “four” for “three”, “used. The spray amount was 200 g/ha for crops and 50 g/ha for weeds.” for “used.”

[14] = test system: wheat; experiment: as above; conditions: assessed after 2 to 3 weeks, 0: no effect, 10: complete death
Procedure: as §1, §3
as §2, with “5,” for “3,”, “four” for “three”, “used. The spray amount was 200 g/ha for crops and 50 g/ha for weeds.” for “used.”

[15] = spray amount 50 g/ha for weeds, Table 6
[16] = spray amount 200 g/ha for crops, Table 6

| Compound | PRE ZEAMX (maize), damage score ([1]; Table 4, 200 g/ha) | PRE ORYSA (rice), damage score ([2]; Table 4, 200 g/ha) | PRE TRZAW (wheat), damage score ([3]; Table 4, 200 g/ha) | XANST (Xanthium strumarium) herbicidal efficacy, scale of 0-10 [4, 15] | IPOAN (Quamoclit pennata) herbicidal efficacy, scale of 0-10 [5, 15] | AESIN (Aeschynomene indica) herbicidal efficacy, scale of 0-10 [6, 15] | ABUTH (Abutilon theophrasti Medicus) herbicidal efficacy, scale of 0-10 [7, 15] | PRE XANST (Xanthium strumarium), efficacy score ([8]; Table 4, 200 g/ha) | PRE IPOAN (Quamoclit pennata), efficacy score ([9]; Table 4, 200 g/ha) | PRE AESIN (Aeschynomene indica), efficacy score ([10]; Table 4, 200 g/ha) | PRE ABUTH (Abutilon theophrasti Medicus), efficacy score ([11]; Table 4, 200 g/ha) | ZEAMX (maize) damage, scale of 0-10 [12, 16] | ORYSA (rice) damage, scale of 0-10 [13, 16] | TRZAW (wheat) damage, scale of 0-10 [14, 16] | also measured |
| --- | --- | --- | --- | --- | --- | --- | --- | --- | --- | --- | --- | --- | --- | --- | --- |
| COc1ccc(COC(=O)c2nc(C3CC(Br)=NO3)cc(N)c2Cl)cc1 (centres unmarked) [Compound 89, 4-methoxybenzyl 4-amino-6-(3-bromo-4,5-dihydroisoxazol-5-yl)-3-chloropicolinate] | 0 | 0 | 0 | 9 | 5 | 8 | 6 | 10 | 8 | 10 | 8 | 0 | 0 | 0 | – |
| Nc1cc(C2CC(Br)=NO2)nc(C(=O)OCc2ccc(F)cc2)c1Cl (centres unmarked) [Compound 90, 4-fluorobenzyl 4-amino-6-(3-bromo-4,5-dihydroisoxazol-5-yl)-3-chloropicolinate] | 0 | 0 | 0 | 10 | 4 | 7 | 5 | 7 | 3 | 10 | 3 | 0 | 0 | 0 | – |
| Nc1cc(C2CC(Br)=NO2)nc(C(=O)OCc2ccc(Br)cc2)c1Cl (centres unmarked) [Compound 91, 4-bromobenzyl 4-amino-6-(3-bromo-4,5-dihydroisoxazol-5-yl)-3-chloropicolinate] | 0 | 0 | 0 | 10 | 5 | 6 | 5 | 6 | 2 | 6 | 10 | 0 | 0 | 0 | – |
| Nc1cc(C2CC(Cl)=NO2)nc(C(=O)Oc2ccccc2)c1Cl (centres unmarked) [Compound 94, phenyl 4-amino-3-chloro-6-(3-chloro-4,5-dihydroisoxazol-5-yl)picolinate] | 2 | 7 | 0 | 10 | 8 | 10 | 10 | 10 | 10 | 10 | 10 | 0 | 3 | 0 | – |
| Nc1cc(C2CC(Cl)=NO2)nc(C(=O)OCc2ccccc2)c1Cl (centres unmarked) [Compound 95, benzyl 4-amino-3-chloro-6-(3-chloro-4,5-dihydroisoxazol-5-yl)picolinate] | 0 | 6 | 0 | 10 | 8 | 10 | 10 | 10 | 0 | 10 | 10 | 1 | 1 | 1 | – |
| Nc1c(Cl)c(F)nc(OCC(=O)O)c1Cl [fluroxypyr, reference compound] | 4 | 8 | 3 | 10 | 6 | 3 | 7 | 9 | 9 | 10 | 7 | 3 | 3 | 0 | PRE ZEAMX (maize), damage score ([1]; Table 3, 200 g/ha): 3; PRE ORYSA (rice), damage score ([2]; Table 3, 200 g/ha): 8; PRE TRZAW (wheat), damage score ([3]; Table 3, 200 g/ha): 3; XANST (Xanthium strumarium) herbicidal efficacy, scale of 0-10 ([4]; spray amount 200 g/ha, Table 5): 10; IPOAN (Quamoclit pennata) herbicidal efficacy, scale of 0-10 ([5]; spray amount 200 g/ha, Table 5): 8; AESIN (Aeschynomene indica) herbicidal efficacy, scale of 0-10 ([6]; spray amount 200 g/ha, Table 5): 10; ABUTH (Abutilon theophrasti Medicus) herbicidal efficacy, scale of 0-10 ([7]; spray amount 200 g/ha, Table 5): 10; PRE XANST (Xanthium strumarium), efficacy score ([8]; Table 3, 200 g/ha): 9; PRE IPOAN (Quamoclit pennata), efficacy score ([9]; Table 3, 200 g/ha): 9; PRE AESIN (Aeschynomene indica), efficacy score ([10]; Table 3, 200 g/ha): 9; PRE ABUTH (Abutilon theophrasti Medicus), efficacy score ([11]; Table 3, 200 g/ha): 7; ZEAMX (maize) damage, scale of 0-10 ([12]; spray amount 200 g/ha, Table 5): 0; ORYSA (rice) damage, scale of 0-10 ([13]; spray amount 200 g/ha, Table 5): 4; TRZAW (wheat) damage, scale of 0-10 ([14]; spray amount 200 g/ha, Table 5): 3 |
